Among the data in BindingDB's records for patent US20240376097 (Beigene, 2024) are IC50 values, retold here.

Where “and” joins values, the source holds several entries; their conditions need not be identical. Identical values can stand only once.

Chain of Apoptosis regulator Bcl-2 (P10415 whole entry): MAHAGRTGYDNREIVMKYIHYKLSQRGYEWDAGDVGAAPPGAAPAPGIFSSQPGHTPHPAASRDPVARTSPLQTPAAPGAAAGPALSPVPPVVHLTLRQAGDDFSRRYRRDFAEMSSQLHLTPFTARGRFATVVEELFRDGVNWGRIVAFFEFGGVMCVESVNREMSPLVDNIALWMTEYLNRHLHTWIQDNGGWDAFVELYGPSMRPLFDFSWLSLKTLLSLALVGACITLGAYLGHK

The test concerns the target Apoptosis regulator Bcl-2 (Homo sapiens, UniProt P10415). The test can be described thus: Bcl-2 TR-FRET Assay. On the procedure:
Compounds disclosed herein were tested for blocking of Bcl-2 protein with its ligand in an assay based on Time-Resolved Fluorescence Resonance Energy Transfer (TR-FRET) methodology. Recombinant human 0.05 nM Bcl-2 protein was pre-incubated with a serial dilution of compounds disclosed herein (top final concentration is 1 uM or 0.1 uM or 0.02 uM or 0.01 uM, 10 points) at room temperature for 0.5 hour in an assay buffer containing 20 mM potassium phosphate buffer, pH 7.5, 50 mM NaCl. 1 mM EDTA, 0.05% Tween-20, 0.01% BSA. Then the FITC labeled Bak peptide Ac-GQVGRQLAIIGDK(FITC)INR-amide (0.5 nM) and MAb Anti 6His Tb cryptate Gold were added to plate and further incubated at room temperature for 1 hour. The TR-FRET signals (337 nm-520 nm-490 nm) were read on BMG PHERAstar FSX instrument. The inhibition percentage of Bcl-2 interaction with its ligand in presence of increasing concentrations of compounds was calculated based on the TR-FRET signals.
On the technique in general: In TR-FRET formats the signal depends on donor and acceptor labels being close together.
The term IC50 denotes the concentration that inhibits the measured activity by half. On to `CC(C)c1ccccc1C1CN(CC(C)(C)C)CCN1C1CC2(CCN(c3ccc(C(=O)NS(=O)(=O)c4ccc(NC[C@H]5CC[C@](C)(O)CC5)c([N+](=O)[O-])c4)c(Oc4cnc5[nH]ccc5c4)c3)CC2)C1` (some centres undefined) [US20240376097, Example 12], for which 0.73 nM corresponded to half-maximal inhibition (IC50).

Compound `COCCN1CCN(C2CC3(CCN(c4ccc(C(=O)NS(=O)(=O)c5ccc(NC[C@H]6CC[C@](C)(O)CC6)c([N+](=O)[O-])c5)c(Oc5cnc6[nH]ccc6c5)c4)CC3)C2)C(c2ccccc2C(C)C)C1` (some centres undefined) [US20240376097, Example 13] displayed an IC50 of 0.011 nM.

Turning to `COc1ccc(CN2CCN(C3CC4(CCN(c5ccc(C(=O)NS(=O)(=O)c6ccc(NC[C@H]7CC[C@](C)(O)CC7)c([N+](=O)[O-])c6)c(Oc6cnc7[nH]ccc7c6)c5)CC4)C3)C(c3ccccc3C(C)C)C2)cc1` (some centres undefined) [US20240376097, Example 19], the midpoint of inhibition, the IC50, lay at 0.086 nM.

Regarding `COc1cc(CN2CCN(C3CC4(CCN(c5ccc(C(=O)NS(=O)(=O)c6ccc(NC[C@H]7CC[C@](C)(O)CC7)c([N+](=O)[O-])c6)c(Oc6cnc7[nH]ccc7c6)c5)CC4)C3)C(c3ccccc3C(C)C)C2)cc(OC)c1` (some centres undefined) [US20240376097, Example 49], the IC50 turned out to be 0.2 nM.

In the case of `COc1cc(CN2CCN(C3CC4(CCN(c5ccc(C(=O)NS(=O)(=O)c6ccc(NC[C@H]7CC[C@](C)(O)CC7)c([N+](=O)[O-])c6)c(Oc6cnc7[nH]ccc7c6)c5)CC4)C3)C(c3ccccc3C(C)C)C2)cc(C(F)(F)F)c1OC` (some centres undefined) [US20240376097, Example 179], the midpoint of inhibition, the IC50, lay at 1.5 nM.

`COc1cc(CN2CCN(C3CC4(CCN(c5ccc(C(=O)NS(=O)(=O)c6ccc(NC[C@H]7CC[C@](C)(O)CC7)c([N+](=O)[O-])c6)c(Oc6cnc7[nH]cc(F)c7c6)c5)CC4)C3)[C@H](c3ccccc3C(C)C)C2)cc(C)c1OC` [US20240376097, Example 210]: the IC50 came out at 0.33 nM.

With `COc1cc(CN2CCN(C3CC4(CCN(c5ccc(C(=O)NS(=O)(=O)c6ccc(NC[C@H]7CC[C@](C)(O)CC7)c([N+](=O)[O-])c6)c(Oc6cnc7[nH]ccc7c6)c5)CC4)C3)[C@H](c3ccccc3C(C)C)C2)ccc1Cl` [US20240376097, Example 276], inhibition was half-maximal at 0.48 nM (IC50).

For `COc1cc(CN2CCN(C3CC4(CCN(c5ccc(C(=O)NS(=O)(=O)c6ccc(NC[C@H]7CC[C@](C)(O)CC7)c([N+](=O)[O-])c6)c(Oc6cnc7[nH]cc(F)c7c6)c5)CC4)C3)[C@H](c3ccccc3C(C)C)C2)ccc1Cl` [US20240376097, Example 278], the IC50 turned out to be 0.6 nM.

In the case of `CC(C)c1ccccc1[C@@H]1CN(Cc2ccc(OC3CC3)c(OC3CC3)c2)CCN1C1CC2(C1)CN(c1ccc(C(=O)NS(=O)(=O)c3ccc(NC[C@H]4CC[C@](C)(O)CC4)c([N+](=O)[O-])c3)c(Oc3cnc4[nH]cc(F)c4c3)c1)C2` [US20240376097, Example 363], the IC50 was 0.34 nM and 0.4 nM.
